The results in this text go back to patent US20240246981A1, “[…] DERIVATIVES AS INHIBITORS OF […]-PEPTIDE CYCLOTRANSFERASE AND […]-PEPTIDE CYCLOTRANSFERASE LIKE PROTEIN” (Boehringer Ingelheim International GmbH, priority 2022, published 2024).

SMILES strings stand for the structures.

Data set [1] relates to SIRPα signalling induced by Raji cells. Nature of the data set: Assay B: SIRPα signalling assay using Raji cells. Particulars: Homo sapiens, compounds of the invention, Table 4, read-out: Inhibition of SIRα signalling induced by Raji cells: IC50. It counts as cell-based, human. As to the method: Bioassay reagent 1 of the PathHunter Bioassay detection kit (DiscoverX 93-0001) was added to each well of the plate using a multichannel pipette followed by a 15 min incubation at room temperature. Afterwards bioassay reagent 2 was added followed by 60 min incubation at room temperature (incubation in the dark).
The analysis of the data was performed using the luminescence signal generated by beta-galactosidase in the PathHunter reporter cell line. The luminescence measurement was done using a Pherastar Multi-Mode Reader.

For data set [2], the target named is QPCT (Homo sapiens (Human), UniProt Q16769). Nature of the data set: Assay A: biochemical QPCT activity assay (MALDI-TOF MS). Particulars: compounds of the invention, Table 2; read-out: Inhibition of QPCT: IC50. On the procedure: (§1) QPCT or QPCTL dependent conversion of N-terminal glutamine to pyroglutamate of CD47 was monitored via MALDI-TOF MS. Test compounds were dissolved in 100% DMSO and serially diluted into clear 1,536-well microtiter plates. Enzymatic reactions were set up in assay buffer containing 20 mM Tris pH 7.5, 0.1 mM TCEP, 0.01% BSA, and 0.001% Tween20. […] The plates were incubated for 10 min in a humidified incubator at 24° C. Subsequently, 2.5 μL of CD47 peptide substrate surrogate (^19[…]^33) was added to each well (final concentration: 10 μM for QPCTL/20 μM for QPCT). The plates were mixed for 30 sec at 1,000 rpm and subsequently incubated for 40 min in a humidified incubator at 24° C. […] The plates were sealed with an adhesive foil, mixed for 30 s at 1,000 rpm and stored at room temperature until preparation of the MALDI target plates. […] QPCT or QPCTL activity was monitored by calculating the ratio between product and internal standard signals followed by normalization to high (100% activity) and low (0% activity) controls. Determination of compound potencies was obtained by fitting the dose-response data to a four-parameter logistical equation.

Data set [3] in a line: Assay C: permeability in CACO-2 cells. It is filed as in vitro ADME. Particulars: human, pH 7.2, compounds of the invention, Table 7; for Papp A→B: Caco-2, apical to basolateral; for efflux ratio: Caco-2. On the procedure: Compounds are dissolved in appropriate solvent (like DMSO, 1-20 mM stock solutions). […] The transport solution (TL) is applied to the apical or basolateral donor side for measuring A-B or B-A permeability (3 filter replicates), respectively. Samples are collected at the start and end of experiment from the donor and at various time intervals for up to 2 hours also from the receiver side for concentration measurement by HPLC-MS/MS or scintillation counting. Sampled receiver volumes are replaced with fresh receiver solution.
(Passage across Caco-2 layers is used to estimate intestinal permeability.)

Data set [4] has as its system SIRPα signalling induced by A549 cells. Kind of data set: Assay B: SIRPα signalling assay using A549 cells. It is filed as cell-based, human. Particulars: Homo sapiens, compounds of the invention, Table 4, read-out: Inhibition of SIRα signalling induced by A549 cells: IC50. As to the method: Two cell types are independently used: the Raji cell line (lymphoblastlike human cell line derived from B lymphocytes from a Burkitt's lymphoma patient in 1963) and A549 cells (adenocarcinomic human alveolar basal epithelial cells).
Test compounds were dissolved in 100% DMSO and serially diluted into a white 384-well microtiter cell culture plate (PerkinElmer #60076780 in case of Raji assay; PDL-coated plates Greiner #781945 in case of A549 assay). 5000 Raji cells (ATCC #CC86) or 5000 A549 cells (ATCC #CCL-185) in Assay Complete Cell Plating reagent 30 (DiscoverX 93-0563R30B) were added per well. The assay plate was incubated for 48 h at 37° C., 95% humidity and 5% CO2. 15000 reporter cells (Jurkat PathHunter SIRPα V1, DiscoverX #93-1135C19) were added to each well, and the plate was incubated for 5 h at 37° C., 95% humidity and 5% CO2. Bioassay reagent 1 of the PathHunter Bioassay detection kit (DiscoverX 93-0001) was added to each well of the plate using a multichannel pipette followed by a 15 min incubation at room temperature. Afterwards bioassay reagent 2 was added followed by 60 min incubation at room temperature (incubation in the dark).
The analysis of the data was performed using the luminescence signal generated by beta-galactosidase in the PathHunter reporter cell line. The luminescence measurement was done using a Pherastar Multi-Mode Reader. Dose-response curves & IC50 data were calculated with 4-parameter sigmoidal dose response formula.

Data set [5] addresses QPCTL (Homo sapiens (Human), UniProt Q9NXS2). Nature of the data set: Assay A: biochemical QPCTL activity assay (MALDI-TOF MS). Particulars: compounds of the invention, Table 2; read-out: Inhibition of QPCTL: IC50. On the procedure: as §1

QPCT, sequence (Q16769 29-361): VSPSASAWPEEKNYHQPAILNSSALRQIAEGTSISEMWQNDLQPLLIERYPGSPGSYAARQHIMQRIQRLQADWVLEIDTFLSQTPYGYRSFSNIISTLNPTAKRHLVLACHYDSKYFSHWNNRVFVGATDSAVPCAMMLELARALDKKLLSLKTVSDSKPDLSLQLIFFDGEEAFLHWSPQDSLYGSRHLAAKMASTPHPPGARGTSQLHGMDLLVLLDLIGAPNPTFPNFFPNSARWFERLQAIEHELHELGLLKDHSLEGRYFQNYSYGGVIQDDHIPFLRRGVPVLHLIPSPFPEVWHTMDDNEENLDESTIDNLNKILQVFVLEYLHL
QPCTL, sequence (Q9NXS2 whole entry): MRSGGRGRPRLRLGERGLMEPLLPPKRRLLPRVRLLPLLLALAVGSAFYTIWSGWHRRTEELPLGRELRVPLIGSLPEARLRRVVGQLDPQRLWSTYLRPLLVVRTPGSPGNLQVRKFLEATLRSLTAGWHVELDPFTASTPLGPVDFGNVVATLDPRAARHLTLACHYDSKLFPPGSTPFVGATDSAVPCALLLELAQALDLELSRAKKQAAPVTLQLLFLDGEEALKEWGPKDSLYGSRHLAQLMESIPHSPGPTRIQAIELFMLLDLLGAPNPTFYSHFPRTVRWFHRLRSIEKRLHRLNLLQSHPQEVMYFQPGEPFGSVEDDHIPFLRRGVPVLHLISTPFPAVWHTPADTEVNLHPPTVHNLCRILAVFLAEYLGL

As usually defined, the IC50 is the concentration that inhibits the measured activity by half. One may read the Papp A→B as the apparent permeability from the apical to the basolateral side of a cell layer. For orientation: efflux ratio means the permeability from basolateral to apical divided by that in the opposite direction, in the common usage. `Cn1cnnc1C1CCN(c2c(C#N)cccc2-c2cnc3nsnc3c2)CC1` [compound 43]: the IC50 in data set [1] was determined as 0.342 µM; in data set [2] it was 0.028 µM; in data set [4], 0.271 µM; in data set [5], 0.003 µM. In addition, the Papp A→B in data set [3] stood at 2.2 ×10⁻⁶ cm/s. For the same compound, the efflux ratio in data set [3] amounted to 22.3.

As to `COc1cc(F)ncc1-c1cccc(C#N)c1N1CCC(c2nncn2C)CC1` [compound 44], the IC50 in data set [1] stood at 0.109 µM; in data set [2] it was 0.018 µM; in data set [4] it was 0.121 µM; in data set [5] it was 0.004 µM. In data set [3], this compound had a Papp A→B of 11 ×10⁻⁶ cm/s. Moreover, the efflux ratio in data set [3] came out at 1.5.

Regarding `Cn1nc2cc(-c3cccc(C#N)c3N3CCC(c4nncn4C)CC3)cnc2n1` [compound 45], the IC50 is 0.14 µM in data set [1], 0.026 µM in data set [2], 0.173 µM in data set [4] and 0.004 µM in data set [5]. The compound also came in with a Papp A→B in data set [3] of 0.8 ×10⁻⁶ cm/s. Further, the efflux ratio in data set [3] was 31.6.

Turning to `Cc1c(-c2cccc(C#N)c2N2CCC(c3nncn3C)CC2)cncc1-n1cccn1` [compound 46], the IC50 was found to be 0.097 µM in data set [1], 0.013 µM in data set [2], 0.071 µM in data set [4] and 0.002 µM in data set [5]. In data set [3], this compound yielded a Papp A→B of 6.8 ×10⁻⁶ cm/s. The efflux ratio in data set [3] was determined as 2.5.

Take `Cn1cnnc1C1CCN(c2c(C#N)cccc2-c2cnc(F)c(OC3CC3)c2)CC1` [compound 47]: the IC50 in data set [1] worked out at 0.077 µM; in data set [2], 0.008 µM; in data set [4], 0.053 µM; in data set [5] it was 0.002 µM. Also, the Papp A→B in data set [3] was found to be 13 ×10⁻⁶ cm/s. In addition, the efflux ratio in data set [3] was found to be 6.

For `COc1cc(-c2cccc(C#N)c2N2CCC(c3nncn3C)CC2)cnn1` [compound 48], the IC50 in data set [1] amounted to 0.446 µM; in data set [2], 0.022 µM; in data set [4], 0.674 µM; in data set [5], 0.007 µM. In addition, in data set [3], the apical-to-basolateral permeability (Papp A→B) was found to be 1.1 ×10⁻⁶ cm/s. Moreover, the efflux ratio in data set [3] turned out to be 21.8.

With `COc1cc(-c2cccc(C#N)c2N2CCC(c3nncn3C)CC2)cnc1F` [compound 49], the IC50 was determined as 0.063 µM in data set [1], 0.009 µM in data set [2], 0.056 µM in data set [4] and 0.002 µM in data set [5]. Also, in data set [3], the Papp A→B is 18 ×10⁻⁶ cm/s. Besides, in data set [3], the efflux ratio was found to be 3.6.

`Cn1cnnc1C1CCN(c2c(C#N)cccc2-c2cnc3nn(C(C)(C)C)cc3c2)CC1` [compound 50]: the IC50 came to 0.021 µM in data set [1], 0.001 µM in data set [2], 0.033 µM in data set [4] and 0.001 µM in data set [5]. The same compound had a Papp A→B in data set [3] of 0.5 ×10⁻⁶ cm/s. In addition, the efflux ratio in data set [3] worked out at 75.5.

Consider `Cc1cc(C)n(-c2cncc(-c3cccc(C#N)c3N3CCC(c4nncn4C)CC3)c2)n1` [compound 51], for which the IC50 in data set [1] was determined as 0.148 µM; in data set [2], 0.008 µM; in data set [4], 0.052 µM; in data set [5] it was 0.002 µM. This compound gave a Papp A→B in data set [3] of 3.4 ×10⁻⁶ cm/s. The efflux ratio in data set [3] turned out to be 12.9.

As for `Cn1cnnc1C1(F)CCN(c2c(C#N)cccc2-c2ccnnc2)CC1` [compound 52], the IC50 came to 0.067 µM in data set [1], 0.003 µM in data set [2], 0.016 µM in data set [4] and 0.002 µM in data set [5]. In addition, the Papp A→B in data set [3] was 15 ×10⁻⁶ cm/s. Also, the efflux ratio in data set [3] was found to be 1.1.

Regarding `COc1cc(-c2cccc(C#N)c2N2CCC(F)(c3nncn3C)CC2)cnc1F` [compound 53], the IC50 worked out at 0.081 µM in data set [1], 0.003 µM in data set [2], 0.022 µM in data set [4] and 0.001 µM in data set [5]. In data set [3], this compound registered a Papp A→B of 35 ×10⁻⁶ cm/s. The efflux ratio in data set [3] is 1.3.

For `Cn1cnnc1C1(F)CCN(c2c(C#N)cccc2-c2ccc(F)nc2)CC1` [compound 56], the IC50 in data set [1] was determined as 0.029 µM; in data set [2], 0.003 µM; in data set [4], 0.007 µM; in data set [5] it was 0.001 µM. Besides, the Papp A→B in data set [3] is 50 ×10⁻⁶ cm/s. For the same compound, the efflux ratio in data set [3] was determined as 0.7.

Turning to `Cn1cnnc1C1CCN(c2c(C#N)cccc2-c2cnn3ncccc23)CC1` [compound 57], the IC50 in data set [1] is 0.442 µM; in data set [2], 0.011 µM; in data set [4], 0.244 µM; in data set [5], 0.005 µM. For the same compound, the Papp A→B in data set [3] came to 3.9 ×10⁻⁶ cm/s. Also, in data set [3], the efflux ratio is 11.

Consider `Cn1cnnc1C1(F)CCN(c2c(C#N)cccc2-c2cnc(=O)n(Cc3ccccc3)c2)CC1` [compound 59], for which the IC50 in data set [1] stood at 0.746 µM; in data set [2], 0.008 µM; in data set [4], 0.619 µM; in data set [5] it was 0.002 µM. For the same compound, in data set [3], the Papp A→B was determined as 0.4 ×10⁻⁶ cm/s. Besides, in data set [3], the efflux ratio was determined as 34.1.

As to `Cn1cnnc1C1(F)CCN(c2c(C#N)cccc2-c2cnc3nn(C(C)(C)C(F)(F)F)cc3c2)CC1` [compound 61], the IC50 in data set [1] came to 0.023 µM; in data set [2], 0.001 µM; in data set [4], 0.022 µM; in data set [5], 0.002 µM. The compound also showed a Papp A→B in data set [3] of 8 ×10⁻⁶ cm/s. Further, the efflux ratio in data set [3] was 8.9.

For `Cn1cnnc1C1(F)CCN(c2c(C#N)cccc2-c2cnc3nn(C(C)(C)C)cc3c2)CC1` [compound 62], the IC50 in data set [1] is 0.021 µM; in data set [2], 0.001 µM; in data set [4], 0.011 µM; in data set [5] it was 0.001 µM. This compound also had a Papp A→B in data set [3] of 4.9 ×10⁻⁶ cm/s. Besides, the efflux ratio in data set [3] is 19.

Turning to `Cn1cnnc1C1(F)CCN(c2c(C#N)cccc2-c2cnc3nnn(Cc4ccccc4)c3c2)CC1` [compound 63], the IC50 in data set [1] is 0.013 µM; in data set [2] it was 0.003 µM; in data set [4] it was 0.009 µM; in data set [5] it was 0.001 µM. The same compound displayed an apparent permeability from apical to basolateral (Papp A→B) in data set [3] of 3.3 ×10⁻⁶ cm/s. The efflux ratio in data set [3] came to 14.5.

As for `Cn1cnnc1C1(F)CCN(c2c(C#N)cccc2-c2cnc3nn(Cc4ccccc4)nc3c2)CC1` [compound 64], the IC50 in data set [1] was 0.061 µM; in data set [2], 0.005 µM; in data set [4], 0.019 µM; in data set [5], 0.002 µM. In data set [3], the Papp A→B amounted to 29 ×10⁻⁶ cm/s. Besides, the efflux ratio in data set [3] was 1.2.

With `Cn1cnnc1C1(C)CCN(c2c(C#N)cccc2-c2ccc(F)nc2)CC1` [compound 66], the IC50 in data set [1] was determined as 0.1 µM; in data set [2] it was 0.002 µM; in data set [4], 0.014 µM; in data set [5], 0.003 µM. The compound further showed a Papp A→B in data set [3] of 30 ×10⁻⁶ cm/s. Also, the efflux ratio in data set [3] was found to be 1.4.

As for `Cn1cnnc1C1CCN(c2c(C#N)cccc2-c2cccnc2)CC1` [compound 67], the IC50 in data set [1] worked out at 0.229 µM; in data set [2], 0.024 µM; in data set [4], 0.058 µM; in data set [5] it was 0.006 µM. Moreover, the Papp A→B in data set [3] was found to be 5.3 ×10⁻⁶ cm/s. The efflux ratio in data set [3] stood at 7.4.

`Cn1cnnc1C1(F)CCN(c2c(C#N)cccc2-c2cnc3ncccc3c2)CC1` [compound 68]: the IC50 in data set [1] is 0.366 µM; in data set [2], 0.013 µM; in data set [4] it was 0.274 µM; in data set [5], 0.007 µM. The compound also displayed a Papp A→B in data set [3] of 0.6 ×10⁻⁶ cm/s. The efflux ratio in data set [3] amounted to 47.5.
